This assay can be described thus: Inhibition of NLRP3 inflammasome activation in PMA-treated human THP-1 cells assessed as ASC-SPECK formation preincubated for 1 hr followed by gramicidin addition and measured after 3 hrs by immunofluorescence staining based assay. Type of assay: cell-based.
In the case of `CCN1CC[C@@]2(C)CCN(c3nnc(-c4ccc(C(F)(F)F)cc4O)c(C)n3)[C@@]2(C)C1`, the EC50 (commonly the concentration at which the effect is half-maximal) is 5 nM.
With `Cc1cc(O)c(-c2nnc(N3CC[C@]4(C)CCN(C)C[C@]34C)nc2C)c(F)c1`, the EC50 is 5 nM.
The figure for `Cc1nc(N2CC[C@]3(C)CCN(C)C[C@]23C)nnc1-c1ccc(OC(F)(F)F)cc1O` is 5 nM; for `Cc1nc(N2CC[C@]3(C)CCN(C)C[C@]23C)nnc1-c1ccc(C(F)(F)F)cc1O` it is 5 nM; for `Cc1nc(N2CC[C@]3(C)CCN(C)C[C@]23C)nnc1-c1ccc(C2CC2)cc1O` it is 7 nM.
For `Cc1nc(N2CC[C@]3(C)CCN(C)C[C@]23C)nnc1-c1ccc(Cl)cc1O`, the EC50 came to 4 nM.

Values taken from ChEMBL document CHEMBL6074705, “Novel Triazines as NLRP3 Inhibitors for Treating Multiple Diseases” (ACS Med Chem Lett, 2024).
